Where two headings read alike, the source gives them in different places.
Columns and labels:
HEM-DP cells = test: Melanin content quantification in human epidermal melanocytes; type: cell-based; conditions: 48 hours
Procedure: Primary cultures of human epidermal melanocytes from a darkly pigmented donor were seeded at 2.2×10^5 cells/well in 1.5 ml media in 12-well plates and incubated for 48 hours. The test compounds were added to cultures and controls were treated with 0.16% DMSO, and further incubated for another 48 hours. For evaluation of melanin content, cells in the wells were trypsinized and cell pellets were washed in PBS. After aspiration, 250 μL of 1N NaOH was added and heated to 70° C. to solubilize melanin. The aliquots were then transferred to a 96-well plate and absorbance was read at 475 nm using microplate reader. A portion of the lysate was used to evaluate total protein content using […] bincinchonic acid (BCA) assay (Pierce BCA kit, Thermo Scientific). The absorbance of melanin was normalized to the total protein content for each lysate and reported as % of control.

[1] = target: T1, intracellular tyrosinase in B16F10 cells (Mus musculus, UniProt P11344); test: Recovery study of intracellular tyrosinase activity in B16F10 cells; type: cell-based; conditions: for tyrosinase activity after removal of compound: 2 day recovery post 2 day exposure
T1 construct: endogenous in cells; host or cells: B16F10
T1 sequence (P11344 19-533): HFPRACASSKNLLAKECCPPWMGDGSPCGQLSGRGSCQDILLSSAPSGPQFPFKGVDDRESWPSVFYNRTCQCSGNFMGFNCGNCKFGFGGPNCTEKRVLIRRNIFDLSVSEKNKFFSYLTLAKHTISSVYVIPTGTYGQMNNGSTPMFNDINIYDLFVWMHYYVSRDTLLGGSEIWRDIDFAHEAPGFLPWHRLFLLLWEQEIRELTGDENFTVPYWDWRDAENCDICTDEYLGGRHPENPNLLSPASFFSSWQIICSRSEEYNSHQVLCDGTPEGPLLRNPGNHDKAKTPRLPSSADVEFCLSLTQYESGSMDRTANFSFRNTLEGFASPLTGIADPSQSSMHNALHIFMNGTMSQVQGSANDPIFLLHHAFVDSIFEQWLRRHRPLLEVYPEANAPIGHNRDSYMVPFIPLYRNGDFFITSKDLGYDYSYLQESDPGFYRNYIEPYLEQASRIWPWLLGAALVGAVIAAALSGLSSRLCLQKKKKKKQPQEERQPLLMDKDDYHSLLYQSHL
Procedure: In order to establish reversibility of tyrosinase inhibition by the CMCs, we conducted a “recovery” study over a 2 day interval using the highest concentrations of the compounds which produced maximum tyrosinase activity inhibition without toxicity. B16F10 were plated in six-well plates at 3.5×10^4 cells/well and compounds were added (PC-10 μM, CMC2.14-10 μM, CMC2.5-20 μM, CMC2.23-25 μM and CMC2.24 at 20 μM) next day. Tyrosinase activity in one set of cultures after detachment and lysis as described herein was estimated after 2 day exposure while another set of cultures were continued with fresh media without the compounds to study reversibility of tyrosinase activity inhibition for another 2 days. Results are expressed as % tyrosinase activity for both 2 day exposure and 2 day recovery post 2 day exposure.

[2] = target: T2, cellular tyrosinase in HEM-DP cells (Homo sapiens, UniProt P14679); test: Intracellular tyrosinase activity in human melanocytes; type: cell-based; conditions: 48 hours
T2 construct: endogenous in cells; host or cells: HEM-DP (primary human epidermal melanocytes, darkly pigmented donor)
T2 sequence (P14679 19-529): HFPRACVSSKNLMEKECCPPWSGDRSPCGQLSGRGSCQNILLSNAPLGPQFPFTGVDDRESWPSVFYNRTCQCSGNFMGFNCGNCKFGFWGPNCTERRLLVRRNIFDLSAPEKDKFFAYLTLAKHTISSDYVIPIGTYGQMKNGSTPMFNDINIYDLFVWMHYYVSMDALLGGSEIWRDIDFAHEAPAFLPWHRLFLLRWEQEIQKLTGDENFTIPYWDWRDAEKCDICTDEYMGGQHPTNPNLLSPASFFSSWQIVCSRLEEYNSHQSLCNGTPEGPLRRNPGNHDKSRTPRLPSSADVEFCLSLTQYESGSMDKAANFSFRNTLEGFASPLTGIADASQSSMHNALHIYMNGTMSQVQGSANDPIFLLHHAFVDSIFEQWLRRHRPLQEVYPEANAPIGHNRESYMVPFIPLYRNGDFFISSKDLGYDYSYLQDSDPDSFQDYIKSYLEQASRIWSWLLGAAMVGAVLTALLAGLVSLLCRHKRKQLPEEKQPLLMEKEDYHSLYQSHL
Procedure: We quantitated the cellular tyrosinase activity of human melanocytes based on established methods. Briefly, human epidermal melanocytes from a darkly pigmented donor (HEM-DP) were cultured in 12-well tissue culture plates at density of 1.5×10^5 cells/well. After 48 hrs. media was changed and test compounds were added, and further incubated for 48 hrs. At the end of treatments, cells were trypsinized and cell pellets were washed in PBS and lysed with lysis buffer under ice for 30 minutes and then centrifuged to remove cellular debris. 50 μl of lysates were then aliquoted in 96-well microplate and 150 μl of freshly prepared 3 mM L-DOPA was added. The absorbance was then measured kinetically at 475 nm every 30 seconds for 30 minutes at 30° C. using microplate reader (Versamax®). The % inhibition of tyrosinase activity was calculated by determining melanin formation rates from the linear range of the slopes of melanin formation over time for the different samples and calculating % inhibition from the measured velocities of melanin formation.

[3] = target: T3, intracellular tyrosinase in HEM-DP cells (Homo sapiens, UniProt P14679); test: Recovery study of intracellular tyrosinase activity in human melanocytes; type: cell-based
T3 construct: endogenous in cells; host or cells: HEM-DP (primary human epidermal melanocytes, darkly pigmented donor)
T3 sequence (P14679 19-529): T2 sequence (P14679 19-529)
Procedure: In order to study if the melanocytes could recover from inhibited tyrosinase activity after exposure to the CMCs, we employed a model for reversibility of inhibition of tyrosinase activity inhibition. This can establish safety of the compounds since irreversible inhibition of tyrosinase activity could damage melanocyte synthetic machinery with potential loss of the protective function of melanin. […] Briefly, HEM-DP were plated in 6-well plates at 2.3×10^5 cells/well and grown for 3 days and then CMCs were added. Tyrosinase activity was estimated after 2 day exposure in cellular lysates and another set of cultures were continued with fresh media without the compounds for further 5 days (with media change at day 3), in order to study reversibility of melanin inhibition.

HaCaT cells = conditions: HaCaT, 48 hours
Procedure: Briefly, 2×10^4 cells/well were seeded in 96-well plates and after 24 hours, the compounds at concentrations of 5-25 μM were added to the wells and incubated for 48 hours. Absorbance was read after 1 hour of incubation of plates and results were expressed as % of control.

B16F10 cells = test: Melanin content quantification in B16F10 cells; type: cell-based, mouse; conditions: for inhibition of melanin content / effect on melanin content (words): 48 hours; for effect on melanin content (words): B16F10, tested concentrations; for IC50: B16F10 cells exposed for 48 hours, non-linear curve fitting, read-out: IC50-Melanin Inhibition
Procedure: B16F10 cells were seeded at 1×10^5 cells/well in 1.5 ml media in 12-well plates and incubated for 24 hours. […] For quantification of melanin content, cells were trypsinized and cell pellets were washed in PBS. Cell pellets were also visually observed for lightening of the intracellular pigment. After aspiration, 250 μL of 1N NaOH was added and heated to 70° C. to solubilize melanin. The aliquots were then transferred to a 96-well plate and absorbance was read at 475 nm using a microplate reader. A portion of the lysate was used to evaluate total protein content using BCA assay. The melanin absorbance was normalized by total protein content and expressed as % of control.

SMILES | reduction in melanin content (HEM-DP cells; 20 μM) | tyrosinase activity after removal of compound ([1]; B16F10, 20 μM) | inhibition of cellular tyrosinase activity ([2]; 20 μM) | reduction of tyrosinase activity at the exposure time ([3]; 20 μM, 2 day exposure) | loss of tyrosinase activity ([1]; B16F10, 10 μM, 2 day exposure) | tyrosinase activity after removal of compound ([1]; B16F10, 10 μM) | stimulation of cell proliferation (HaCaT cells; 5 μM) | stimulation of cell proliferation (HaCaT cells; 10 μM) | inhibition of melanin content (B16F10 cells; B16F10, 10 μM) | effect on melanin content (words) (B16F10 cells) | IC50 (B16F10 cells) | reduction in melanin content (HEM-DP cells; 10 μM) | stimulation of cell proliferation (HaCaT cells; 20 μM) | inhibition of melanin content (B16F10 cells; B16F10, 25 μM) | effect on melanin content (words) (B16F10 cells; listed as 2.23) | inhibition of cellular tyrosinase activity ([2]; 5 μM) | inhibition of cellular tyrosinase activity ([2]; 10 μM) | recovery of tyrosinase activity ([3]; 5 days after removal, CMC2.24 10 μM, CMC2.23 and CMC2.5 20 μM)
COC(=O)C(C(=O)C=Cc1ccc(O)c(OC)c1)C(=O)C=Cc1ccc(O)c(OC)c1 (centres unmarked) [CMC2.5, 4-methoxycarbonyl curcumin] | ~20% | completely recovered | 16% | 12% |  |  |  |  |  |  |  |  |  |  |  |  |  | 
COC(=O)C(C(=O)/C=C/c1ccc(O)cc1)C(=O)/C=C/c1ccc(O)cc1 [CMC2.14] |  |  |  |  | up to 75% | 100% | 23.2% | 15.5% | 32.21% | moderate inhibition | 15.1 µM |  |  |  |  |  |  | 
COc1cc(/C=C/C(=O)C(C(=O)/C=C/c2ccc(O)c(OC)c2)C(=O)Nc2ccccc2)ccc1O [CMC2.23] | 20% |  | 49% |  |  |  |  | 11.3% |  | most potent inhibition | 24.1 µM | 20% | 22.9% | 46.4% | moderate inhibition | 25% | 35% | partially recovered

— patent publication US10300000B2, “Inhibition of melanogenesis by chemically modified curcumins” (The Research Foundation for The State University of New York, priority 2016, dated 2019)
